From ChEMBL document CHEMBL1131237 (J Med Chem, 1998)
Values joined by “and” are separate entries in the source; they are usually repeats but may differ in a detail not shown here. Equal values may be shown once.

How the values were obtained:
[1] = biological target: Sodium-dependent dopamine transporter (Rattus norvegicus) (UniProt P23977); experiment: Hill coefficient was determined
[2] = biological target: T1, Sodium-dependent dopamine transporter (Rattus norvegicus, UniProt P23977); experiment: Inhibition of high-affinity uptake of [3H]dopamine at dopamine transporter into rat striatal nerve endings (synaptosomes); type: subcellular, Brain
T1 sequence (P23977 whole entry): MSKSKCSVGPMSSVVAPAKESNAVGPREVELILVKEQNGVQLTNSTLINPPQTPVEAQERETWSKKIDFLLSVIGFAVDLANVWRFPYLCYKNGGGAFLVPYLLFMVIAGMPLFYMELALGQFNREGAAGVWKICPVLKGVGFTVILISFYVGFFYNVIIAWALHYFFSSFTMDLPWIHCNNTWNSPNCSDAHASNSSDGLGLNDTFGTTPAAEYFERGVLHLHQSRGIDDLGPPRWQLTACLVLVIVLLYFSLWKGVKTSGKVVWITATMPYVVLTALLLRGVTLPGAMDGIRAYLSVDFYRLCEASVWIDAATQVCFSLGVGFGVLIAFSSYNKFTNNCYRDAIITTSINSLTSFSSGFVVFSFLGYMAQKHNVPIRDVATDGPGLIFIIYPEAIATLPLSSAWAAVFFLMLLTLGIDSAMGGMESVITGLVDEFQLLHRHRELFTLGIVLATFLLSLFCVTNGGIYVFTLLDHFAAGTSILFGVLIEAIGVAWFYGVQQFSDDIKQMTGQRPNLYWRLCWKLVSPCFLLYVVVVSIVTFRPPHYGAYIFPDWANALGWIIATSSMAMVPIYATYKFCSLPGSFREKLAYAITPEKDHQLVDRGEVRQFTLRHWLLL

[3] = biological target: T1, Sodium-dependent dopamine transporter; experiment: Ability to displace [3H]WIN-35428 binding to dopamine transporter from rat striatal membranes
[4] = biological target: Sodium-dependent dopamine transporter (Rattus norvegicus) (UniProt P23977)

Sequence of Sodium-dependent dopamine transporter (Rattus norvegicus) (P23977 whole entry): as above

Compound	Hill coefficient [1]	IC50 [2] [µM]	IC50 [3] [µM]	Hill coefficient [4]
COC(=O)[C@H]1CN(C)CC[C@H]1c1ccc(Cl)cc1	0.96 and 1.08	0.195	0.653	–
CN1CC[C@@H](c2ccc(Cl)cc2)C(CO)C1 (stereo partly specified)	–	–	0.442	0.66
CC(=O)OCC1CN(C)CC[C@H]1c1ccc(Cl)cc1 (stereo partly specified)	–	2.02	0.928	0.89 and 1.07
COC(=O)C1CN(C)CC[C@@H]1c1ccccc1 (stereo partly specified)	1.02	–	0.769	–
CC(=O)OC[C@@H]1CN(C)CC[C@@H]1c1ccc(Cl)cc1	–	–	–	0.66 and 1.03
CCC[C@@H]1CN(C)CC[C@@H]1c1ccc(Cl)cc1	0.64 and 1.04	–	–	–
COC(=O)[C@@H]1CN(C)CC[C@@H]1c1ccc(Cl)cc1	–	–	–	0.78 and 0.94
COC(=O)[C@H]1CN(C)CC[C@@H]1c1ccc(Cl)cc1 (racemic)	–	–	0.197	0.91
COC(=O)[C@@H]1CN(C)CC[C@@H]1c1ccc(Cl)cc1 (racemic)	–	–	–	0.91 and 1.04
CC(=O)OCC1CN(C)CC[C@@H]1c1ccc(Cl)cc1 (single isomer, unassigned)	–	–	0.461	0.76
CCCC1CN(C)CC[C@@H]1c1ccc(Cl)cc1 (single isomer, unassigned)	0.85 and 1.03	0.0232	0.0172	–
COC(=O)C1CN(C)CC[C@H]1c1ccc(Cl)cc1 (single isomer, unassigned)	0.81 and 0.95	5.09	–	–
COC(=O)C1CN(C)CC[C@@H]1c1ccc(Cl)cc1 (single isomer, unassigned)	–	–	–	0.78 and 0.97
COC(=O)[C@H]1[C@@H](OC(=O)c2ccccc2)CC2CC[C@H]1N2C (single isomer, unassigned)	–	–	–	0.87 and 1.06
CN1CC[C@H](c2ccc(Cl)cc2)C(CO)C1 (single isomer, unassigned; (+)-13) [listing 1 of 2 here]	–	0.683	0.24	–
CN1CC[C@H](c2ccc(Cl)cc2)C(CO)C1 (single isomer, unassigned; (+)-13) [listing 2 of 2 here]	–	–	–	0.85 and 1.09
CN1CC[C@H](c2ccc(Cl)cc2)C(CO)C1 (single isomer, unassigned; (-)-5) [listing 1 of 2 here]	–	0.049	0.0753	–
CN1CC[C@H](c2ccc(Cl)cc2)C(CO)C1 (single isomer, unassigned; (-)-5) [listing 2 of 2 here]	–	–	–	0.56 and 1.04
